A polymer gas permeability compilation

Compound	CH4 permeability [Barrer]	CO2 permeability [Barrer]	H2 permeability [Barrer]	N2 permeability [Barrer]	O2 permeability [Barrer]
*C(=C(*)c1ccc2c(c1)C1(CC1)c1ccccc1-2)c1ccc([Si](C)(C)C)cc1 (repeat unit)	1500	4100	1900	540	1000
*c1ccc(Oc2ccc(-n3c(=O)c4cc5sc6cc7c(=O)n(*)c(=O)c7cc6sc5cc4c3=O)cc2)cc1 (repeat unit)	0.082	4	11	0.11	0.74
*c1ccc(Oc2ccc(C(*)(c3ccccc3)C(F)(F)F)cc2)cc1 (repeat unit)	0.65	17	28	0.69	3.5
*c1ccc(Oc2ccc(C(C)(C)c3ccc(Oc4ccc(N5C(=O)c6ccc(-c7ccc8c(c7)C(=O)N(*)C8=O)cc6C5=O)cc4)cc3)cc2)cc1 (repeat unit)	0.0846	2.8	–	0.0938	0.596
*c1ccc(Oc2ccc(C(c3ccc(Oc4ccc(-n5c(=O)c6cc7c(=O)n(*)c(=O)c7cc6c5=O)cc4C(F)(F)F)cc3)(C(F)(F)F)C(F)(F)F)cc2)c(C(F)(F)F)c1 (repeat unit)	0.937	24.6	50.4	1.5	7.06
*c1ccc(Oc2ccc(C3(c4ccc(Oc5ccc(N6C(=O)c7ccc(C(c8ccc9c(c8)C(=O)N(*)C9=O)(C(F)(F)F)C(F)(F)F)cc7C6=O)c(C)c5)cc4)c4ccccc4-c4ccccc43)cc2)cc1C (repeat unit)	0.34	11.7	47.3	0.73	3.62

Now from value to compound:

CH4 permeability [Barrer]	CO2 permeability [Barrer]	H2 permeability [Barrer]	N2 permeability [Barrer]	O2 permeability [Barrer]	Compound
1.19	33.1	–	2.87	15.2	*c1ccc(Oc2ccc(-c3ccc(-c4ccc(Oc5ccc(N6C(=O)c7ccc(C(c8ccc9c(c8)C(=O)N(*)C9=O)(C(F)(F)F)C(F)(F)F)cc7C6=O)cc5)c(C(F)(F)F)c4)cc3)cc2C(F)(F)F)cc1 (repeat unit)
1.68	45.3	–	1.78	11.7	*c1ccc(Oc2ccc(-c3ccc(-c4ccc(Oc5ccc(N6C(=O)c7ccc(C(c8ccc9c(c8)C(=O)N(*)C9=O)(C(F)(F)F)C(F)(F)F)cc7C6=O)cc5)c(C(F)(F)F)c4)s3)cc2C(F)(F)F)cc1 (repeat unit)
1.95	51.9	–	1.91	12.2	*c1ccc(Oc2ccc(-c3cccc(-c4ccc(Oc5ccc(N6C(=O)c7ccc(C(c8ccc9c(c8)C(=O)N(*)C9=O)(C(F)(F)F)C(F)(F)F)cc7C6=O)cc5)c(C(F)(F)F)c4)n3)cc2C(F)(F)F)cc1 (repeat unit)
0.279	9.15	30.6	0.563	3.11	*c1ccc(Oc2ccc(C(c3ccc(Oc4ccc(N5C(=O)c6ccc(-c7ccc8c(c7)C(=O)N(*)C8=O)cc6C5=O)cc4C(F)(F)F)cc3)(C(F)(F)F)C(F)(F)F)cc2)c(C(F)(F)F)c1 (repeat unit)
0.515	19	46.7	0.982	5.27	*c1ccc(Oc2ccc(C(c3ccc(Oc4ccc(N5C(=O)c6ccc(C(c7ccc8c(c7)C(=O)N(*)C8=O)(C(F)(F)F)C(F)(F)F)cc6C5=O)cc4)cc3)(C(F)(F)F)C(F)(F)F)cc2)cc1 (repeat unit)
0.703	22.8	55.4	1.3	6.5	*c1ccc(Oc2ccc(C(c3ccc(Oc4ccc(N5C(=O)c6ccc(C(c7ccc8c(c7)C(=O)N(*)C8=O)(C(F)(F)F)C(F)(F)F)cc6C5=O)cc4C(F)(F)F)cc3)(C(F)(F)F)C(F)(F)F)cc2)c(C(F)(F)F)c1 (repeat unit)
